# Tested on: Beet Armyworm (Spodoptera exigua, LAPHEG) second instar larva
# Experiment: Bioassay on beet armyworm (BAW), 128-well diet tray assay
# Format: in vivo
# Settings: 50 μg/cm^2 on artificial diet, 25° C., five days
# Method: Example A: Bioassays on Beet Armyworm (Spodoptera exigua, LAPHEG) (“BAW”) and Cabbage Looper (Trichoplusia ni, TRIPNI) (“CL”)
# Bioassays on BAW were conducted using a 128-well diet tray assay. One second instar BAW larva was placed in each well (8 wells total) of the diet tray that had been previously filled with 1 mL of artificial diet to which 50 μg/cm^2 of the test molecule (dissolved in 50 μL of 90:10 acetone-water mixture) had been applied (to each of eight wells) and then allowed to dry. Trays were covered with a clear self-adhesive cover, vented to allow gas exchange, and held at 25° C., 14:10 light-dark for five days. Percent mortality was recorded for the larvae in each well; activity in the eight wells was then averaged.
row,Compound,"activity against BAW (percent mortality, averaged over eight wells)"
1,"O=C(CC(F)(F)F)Nc1cc(NC(=O)[C@H]2[C@H](c3cc(Cl)cc(Cl)c3)C2(Cl)Cl)ccc1Cl (racemic) [F5, trans-rac-2,2-Dichloro-N-(4-chloro-3-(3,3,3-trifluoropropanamido)phenyl)-3-(3,5-dichlorophenyl)cyclopropane-1-carboxamide]",exhibited activity
2,"CC(C(=O)Nc1cc(NC(=O)C2C(c3cc(Cl)cc(Cl)c3)C2(Cl)Cl)ccc1Cl)C(F)(F)F (racemic) [F6, trans-rac-2,2-Dichloro-N-(4-chloro-3-(3,3,3-trifluoro-2-methylpropanamido)phenyl)-3-(3,5-dichlorophenyl)cyclopropane-1-carboxamide]",exhibited activity
3,"CC(CC(F)(F)F)C(=O)Nc1cc(NC(=O)C2C(c3cc(Cl)cc(Cl)c3)C2(Cl)Cl)ccc1Cl (racemic) [F8, trans-rac-2,2-Dichloro-N-(4-chloro-3-(4,4,4-trifluoro-2-methylbutanamido)phenyl)-3-(3,5-dichlorophenyl)cyclopropane-1-carboxamide]",exhibited activity
4,"CC(CC(=O)Nc1cc(NC(=O)C2C(c3cc(Cl)cc(Cl)c3)C2(Cl)Cl)ccc1Cl)C(F)(F)F (racemic) [F9, trans-rac-2,2-Dichloro-N-(4-chloro-3-(4,4,4-trifluoro-3-methylbutanamido)phenyl)-3-(3,5-dichlorophenyl)cyclopropane-1-carboxamide]",exhibited activity
5,"O=C(Nc1cc(NC(=O)[C@H]2[C@H](c3cc(Cl)cc(Cl)c3)C2(Cl)Cl)ccc1Cl)c1ccc(F)cc1F (racemic) [F24, trans-rac-N-(2-Chloro-5-(2,2-dichloro-3-(3,5-dichlorophenyl)cyclopropane-1-carboxamido)phenyl)-2,4-difluorobenzamide]",exhibited activity
6,"O=C(Nc1cc(NC(=O)[C@H]2[C@H](c3cc(Cl)cc(Cl)c3)C2(Cl)Cl)ccc1Cl)c1cc(F)cc(F)c1 (racemic) [F26, trans-rac-N-(2-chloro-5-(2,2-dichloro-3-(3,5-dichlorophenyl)cyclopropane-1-carboxamido)phenyl)-3,5-difluorobenzamide]",exhibited activity
7,"Cc1cc(C#N)ccc1C(=O)Nc1cc(NC(=O)[C@H]2[C@H](c3cc(Cl)cc(Cl)c3)C2(Cl)Cl)ccc1Cl (racemic) [F27, trans-rac-N-(2-Chloro-5-(2,2-dichloro-3-(3,5-dichlorophenyl)cyclopropane-1-carboxamido)phenyl)-4-cyano-2-methylbenzamide]",exhibited activity
8,"O=C(Nc1cc(NC(=O)[C@H]2[C@H](c3cc(Cl)cc(Cl)c3)C2(Cl)Cl)ccc1Cl)c1ccc(F)cn1 (racemic) [F30, trans-rac-N-(2-Chloro-5-(2,2-dichloro-3-(3,5-dichlorophenyl)cyclopropane-1-carboxamido)phenyl)-5-fluoropicolinamide]",exhibited activity
9,"O=C(Nc1cc(NC(=O)[C@H]2[C@H](c3cc(Cl)cc(Cl)c3)C2(Cl)Cl)ccc1Cl)c1ccncn1 (racemic) [F32, trans-rac-N-(2-Chloro-5-(2,2-dichloro-3-(3,5-dichlorophenyl)cyclopropane-1-carboxamido)phenyl)pyrimidine-4-carboxamide]",exhibited activity
10,"O=C(Nc1cc(NC(=O)[C@H]2[C@H](c3cc(Cl)cc(Cl)c3)C2(Cl)Cl)ccc1Cl)c1ccco1 (racemic) [F34, trans-rac-N-(2-Chloro-5-(2,2-dichloro-3-(3,5-dichlorophenyl)cyclopropane-1-carboxamido)phenyl)furan-2-carboxamide]",exhibited activity

# From patent publication US20240343681A1, “MOLECULES HAVING PESTICIDAL UTILITY AND INTERMEDIATES AND PROCESSES RELATED THERETO” (priority 2021, published 2024)
